Experiments:
A549 [1] = assay: Antiproliferative activity against human A549 cells assessed as inhibition of cell viability after 72 hrs by CCK-8 assay; type: functional, cell-based; conditions: A549, 72 h
BGC-823 [2] = assay: Antiproliferative activity against human BGC-823 cells assessed as inhibition of cell viability after 72 hrs by CCK-8 assay; type: functional, cell-based; conditions: BGC-823, 72 h
MCF-10A = assay: Cytotoxicity against human MCF-10A cells assessed as inhibition of cell viability after 72 hrs by CCK-8 assay; type: cell-based
MDA-MB-231 [3] = assay: Antiproliferative activity against human MDA-MB-231 cells assessed as inhibition of cell viability after 72 hrs by CCK-8 assay; type: functional, cell-based; conditions: MDA-MB-231, 72 h
MCF7 [4] = assay: Antiproliferative activity against human MCF7 cells assessed as inhibition of cell viability after 72 hrs by CCK-8 assay; type: functional, cell-based; conditions: MCF7, 72 h
[5] = Selectivity index, ratio of IC50 for human MCF-10A cells to IC50 for human MCF-7 cells
PC-3 [6] = assay: Antiproliferative activity against human PC-3 cells assessed as inhibition of cell viability after 72 hrs by CCK-8 assay; type: functional, cell-based; conditions: PC-3, 72 h
BGC-823 [7] = assay: Antiproliferative activity against human BGC-823 cells assessed as inhibition of cell viability at 20 uM after 72 hrs by CCK-8 assay relative to control; type: functional
PC-3 [8] = assay: Antiproliferative activity against human PC-3 cells assessed as inhibition of cell viability at 20 uM after 72 hrs by CCK-8 assay relative to control; type: functional
MDA-MB-231 [9] = assay: Antiproliferative activity against human MDA-MB-231 cells assessed as inhibition of cell viability at 20 uM after 72 hrs by CCK-8 assay relative to control; type: functional
A549 [10] = assay: Antiproliferative activity against human A549 cells assessed as inhibition of cell viability at 20 uM after 72 hrs by CCK-8 assay relative to control; type: functional
MCF7 [11] = assay: Antiproliferative activity against human MCF7 cells assessed as inhibition of cell viability at 20 uM after 72 hrs by CCK-8 assay relative to control; type: functional

Row | SMILES | IC50 (A549 [1]) | IC50 (BGC-823 [2]) | IC50 (MCF-10A) | IC50 (MDA-MB-231 [3]) | IC50 (MCF7 [4]) | Ratio IC50 [5] | IC50 (PC-3 [6]) | inhibition at 20 µM (BGC-823 [7]) | inhibition at 20 µM (PC-3 [8]) | inhibition at 20 µM (MDA-MB-231 [9]) | inhibition at 20 µM (A549 [10]) | inhibition at 20 µM (MCF7 [11])
1 | COc1cccc(C2Oc3ccccc3-c3cc(OC)c(OC)cc32)c1 (stereo unspecified) | 11.7 µM | 8.99 µM | 60.3 µM | 13.8 µM | 9.53 µM | 6.33 | 10.1 µM |  |  |  |  | 
2 | COc1ccc2c(c1)-c1ccccc1OC2c1cccs1 (stereo unspecified) |  |  |  |  |  |  |  | 28.2% | 53.7% | 38.6% | 43.9% | 53.1%
3 | COc1ccc(C2Oc3ccc(OC)cc3-c3ccccc32)cc1 (stereo unspecified) |  |  |  |  |  |  |  | 42.5% | 36.3% | 28.2% | 36.2% | 34.7%
4 | COc1ccc2c(c1)-c1ccccc1OC2c1ccccc1C (stereo unspecified) | 8.54 µM | 8.52 µM | 44.6 µM | 7.41 µM | 9.29 µM | 4.8 | 9.62 µM | 64.2% | 66% | 59.8% | 60.9% | 69.7%
5 | COc1ccc2c(c1)-c1ccccc1OC2c1ccccc1 (stereo unspecified) |  |  |  |  |  |  |  | 30.5% | 31.8% | 30.6% | 32% | 25.6%
6 | COc1ccc(C2Oc3ccc(Br)cc3-c3ccccc32)cc1 (stereo unspecified) |  |  |  |  |  |  |  | 37.8% | 36.1% | 36.1% | 28.9% | 26.6%
7 | COc1ccc2c(c1)-c1ccccc1OC2c1ccc(SC)cc1 (stereo unspecified) |  |  |  |  |  |  |  | 39.4% | 39.7% | 35.3% | 31.8% | 41.4%
8 | CC#C[C@]1(O)CC[C@H]2[C@@H]3CCC4=CC(=O)CCC4=C3[C@@H](c3ccc(N(C)C)cc3)C[C@@]21C [MIFEPRISTONE] |  |  |  |  | 24 µM |  |  |  |  |  |  | 
9 | COc1ccc2c(c1)-c1ccccc1OC2c1ccc(O[Si](C)(C)C(C)(C)C)cc1 (stereo unspecified) |  |  |  |  |  |  |  | 25.5% | 36.5% | 31% | 31.2% | 31.4%
10 | c1ccc(C2Oc3ccccc3-c3ccccc32)cc1 (stereo unspecified) |  |  |  |  |  |  |  | 18.8% | 19.2% | 27.2% | 23.8% | 25.3%
11 | COc1ccc2c(c1)-c1ccccc1OC2c1ccc(C)cc1 (stereo unspecified) |  |  |  |  |  |  |  | 37.4% | 38.9% | 35.7% | 31.1% | 40.4%
12 | COc1ccc2c(c1)-c1ccccc1OC2c1cccc(C)c1 (stereo unspecified) |  |  |  |  |  |  |  | 32% | 42.3% | 24.9% | 34.4% | 33.8%
13 | COc1ccc(C2Oc3cc(C)ccc3-c3ccccc32)cc1 (stereo unspecified) |  |  |  |  |  |  |  | 32.9% | 38.1% | 25.6% | 22.6% | 30.3%
14 | CCOc1ccc(C2Oc3ccccc3-c3ccccc32)cc1 (stereo unspecified) |  |  |  |  |  |  |  | 26.4% | 34% | 35.6% | 34.9% | 32%
15 | COc1ccc(C2Oc3ccccc3-c3cc(OC)ccc32)cc1 (stereo unspecified) |  |  |  |  |  |  |  | 50.6% | 55.4% | 52.7% | 49.6% | 59.6%
16 | COc1ccc(C2Oc3ccccc3-c3ccc(OC)cc32)cc1 (stereo unspecified) |  |  |  |  |  |  |  | 47.1% | 44.7% | 43.2% | 43.6% | 45.5%
17 | c1ccc2c(c1)OC(c1cccc3ccccc13)c1ccccc1-2 (stereo unspecified) |  |  |  |  |  |  |  | 26.1% | 34% | 30.6% | 31.5% | 26.4%
18 | COc1ccc(C2Oc3ccc(C)cc3-c3ccccc32)cc1 (stereo unspecified) |  |  |  |  |  |  |  | 27.6% | 36.3% | 23.2% | 29.4% | 32.9%
19 | Cc1ccc(C2Oc3ccccc3-c3ccccc32)cc1 (stereo unspecified) |  |  |  |  |  |  |  | 25% | 26% | 23.7% | 23.5% | 30.2%
20 | COc1ccc2c(c1)-c1ccccc1OC2c1ccc(Cl)cc1 (stereo unspecified) |  |  |  |  |  |  |  | 37% | 41.1% | 32.4% | 36% | 35.6%
21 | CCOc1ccc(C2Oc3ccccc3-c3cc(OC)ccc32)cc1 (stereo unspecified) |  |  |  |  |  |  |  | 26.6% | 45% | 28.3% | 40.5% | 41.1%
22 | COc1ccc2c(c1)-c1ccccc1OC2c1ccccc1OC (stereo unspecified) | 23.5 µM | 26.1 µM | 61.6 µM | 15.2 µM | 8.92 µM | 6.9 | 21.4 µM |  |  |  |  | 
23 | COc1cccc(C2Oc3ccccc3-c3cc(OC)ccc32)c1 (stereo unspecified) | 17 µM | 13.2 µM | 58.5 µM | 18.6 µM | 9.94 µM | 5.88 | 14.3 µM | 51.9% | 57% | 66.1% | 56.3% | 69.4%
24 | COc1ccc2c(c1)-c1ccccc1OC2c1ccc(Br)cc1 (stereo unspecified) |  |  |  |  |  |  |  | 24.1% | 43.9% | 31% | 38.8% | 40.5%
25 | COc1ccc2c(c1)-c1ccccc1OC2c1cccc(OC)c1OC (stereo unspecified) | 17 µM | 9.23 µM | 47.9 µM | 22.5 µM | 15.2 µM | 3.15 | 7.86 µM |  |  |  |  | 
26 | COc1ccc(C2Oc3ccccc3-c3ccccc32)cc1 (stereo unspecified) |  |  |  |  |  |  |  | 34.1% | 37% | 21.2% | 29.9% | 34.4%

From ChEMBL document CHEMBL4680352, “Rational design and synthesis of 6-aryl-6H-benzo[c]chromenes as non-steroidal progesterone receptor antagonists for use against cancers” (Bioorg Med Chem, 2021)
